From patent US5861424A, “Composition and method for treating cancer” (priority 1995, dated 1999)
Like-named read-outs stand apart in the source and are kept apart here.

Tests used:
human melanoma LOX = experiment: Survival of nude mice implanted with human melanoma LOX; format: in vivo, human melanoma in male athymic Swiss nu/nu mouse; settings: Mus musculus, ip, 24 h, read-out: T/C (survival)
Experimental: LOX, a human melanoma cell line, grown subcutaneously in nude mice was excised, trypsinized to yield a single cell suspension using a metal grid with a […]. Red blood cells were lysed by incubation with 0.17 molar ammonium chloride at 4° C. for 20 minutes. Five million viable trypan blue negative cells made up in 0.1 ml of Dulbecco modified Eagles' medium (DME) were injected into the peritoneal cavity of a male athymic Swiss nu/nu mouse. The control group and each treatment group consisted of 5 to 10 mice. Treatment was commenced the following day by intraperitoneal injection.
Ten control mice received 0.25 ml of 2% dextrose on those days the treated groups were injected with the compounds of this invention. The compounds of the General Formulas. (1) to (6) used in this invention which were tested are listed in Table VIII below and the results obtained are shown in Table VIII and FIG. 1-6 of the accompanying drawings. T/C is the ratio, expressed as a percentage of the mean survival age of the treated group to the mean survival age of the untreated control group.

[1] = system: human colon carcinoma cell line CX-1; experiment: Colony formation assay, human colon carcinoma CX-1; format: cell-based; settings: Table III; for IC50: Homo sapiens, Colon carcinoma cell, 24 h treatment, colony count after 7 to 10 days, read-out: CX-1 (IC50); for Selectivity (ratio of IC50 for CV-1 and IC50 for CX-1): CV-1/CX-1
[2] = system: human colon carcinoma CX-1; experiment: Anti-human colon carcinoma CX-1 activity in nude mice, tumor inhibition; format: in vivo, human colon carcinoma in Swiss nu/nu mice; settings: Mus musculus, ip, 24 h, 20 mg/kg
Text: Human colon carcinoma cell line CX-1 has been chosen by the National Cancer Institute as a mode for cancer drug screening (NCI Protocol 3C2H2). It was established in culture from the surgical explant of the primary colon adenocarcinoma of a person with no previous chemotherapy. The cultured CX-1 cells, upon subcutaneous injection, can grow readily in nude mice as a moderately- to well-differentiated human colon carcinoma. CEA is expressed as expected for differentiated colon carcinoma cells. Abundant keratin, consistent with epithelial origin, is present. Increased uptake and prolonged retention of delocalized lipophilic cations are observed.
Swiss nu/nu mice obtained from Taconic Farm were housed in a pathogen-free environment. Tumors subcutaneously passaged in nude mice were excised under sterile conditions and converted to a single cell suspension using a metal grid with a 0.4 mm mesh. Red blood cells were lysed by incubation with 0.17M ammonium chloride at 4° C. for 20 minutes. Cells were scored for viability with trypan blue. Viable CX-1 cells (2.5 million) made up in 0.1 ml of cell culture medium were injected subcutaneously into each nude mouse. The mice were randomly allocated into a control group (five mice) and a treatment group (five mice per group). The drug treatment was commenced the next day. Doses and schedules were developed empirically and were based mainly on information on LD50 and LD10 obtained from preliminary toxicity studies. The control group received an equivalent volume of hydroxylpropyl-β-cyclodextrin-5% glucose solution.
The pharmaceutical compositions tested comprised solutions in 5% glucose subjected to sonication at concentrations of 1 mg/ml. Those compounds which were not completely dissolved by this procedure were dissolved in hydroxypropyl-β-cyclodextrin using the following method. Hydroxypropyl-β-cyclodextrin (45 g) was mixed with 100 ml of sterilized, double distilled water and stirred for four hours. Each of the compounds to be tested (20 mg) was mixed with 10 ml of hydroxypropyl-β-cyclodextrin solution and sonicated for 60 minutes in the dark. This solution was then diluted in 5% glucose to yield a final compound concentration of 0.5 mg/ml, and further sonicated for 60 minutes in the dark to assure that the compound was completely dissolved.
When the growth of tumors in the control group reached the exponential phase and the size of the tumor was palpable (usually 20 to 30 days after tumor implantation), the experiments were terminated. Tumors in each mouse were excised and weighed using an analytical balance. Total tumor weight in each group from five mice was calculated. Per cent tumor inhibition between the treated group and the control group was then calculated for each group.

[3] = system: normal monkey kidney epithelial cell line CV-1; experiment: Colony formation assay, normal monkey kidney epithelial cells CV-1; settings: Primates, Epithelial cell;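 further: colonies visualized by crystal violet staining, incubation at 37 °C, IC50 relative to untreated wells given culture medium alone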
Experimental: Human colon carcinoma cell line CX-1 or normal monkey kidney epithelial cell line CV-1 was chosen as representatives of cancer cells and normal cells, respectively. […] CX-1 cells (2,000 cells/well) and CV-1 cells (1,000 cells/well) were plated in 24-well plastic culture plates. […] The control received culture media only. Cells were treated with compounds of General Formulas (1) to (6) at 37° C. for 24 hours. After rinsing with fresh culture medium three times, the cells were further incubated at 37° C. for 7 to 10 days. Cell colonies were fixed and stained with 2% crystal violet in 70% ethanol for 10 minutes and rinsed in water. […] The selectivity is defined as the ratio of IC50 for CV-1 and IC50 for CX-1.

[4] = i.p. on day 1, 4, 7, 11, 15, 18
[5] = read-out: CV-1 (IC50), Table III, 24 h treatment, colony count after 7 to 10 days
[6] = i.p. on day 1, 7**, 9** (**10 mg/kg)

| Compound | IC50 [1] | Selectivity (ratio of IC50 for CV-1 and IC50 for CX-1) [1] | IC50 [3, 5] | further results |
| --- | --- | --- | --- | --- |
| CCN1C(=CC=c2sc(=CC3=[N+](CC)CCS3)n(CC)c2=O)C=Cc2ccccc21 [Compound 244] |  |  |  | response vs control in vivo at 10 mg/kg (human melanoma LOX; 10 mg/kg, i.p. on day 1, 3, 5, 7, 9): 153% |
| CCn1c(=Cc2sc3c4ccccc4ccc3[n+]2C)sc(=CC=C2Sc3ccc4ccccc4c3N2C)c1=O [Compound 44] | 0.02 µg/mL | 1000 | 20 µg/mL | inhibition in vivo at 20 mg/kg [2, 4]: 54.8% |
| C=CCn1c(=Cc2cc[n+](CC)c3ccccc23)sc(=CC=C2C=CN(CC)c3ccccc32)c1=O [Compound 304] |  |  |  | inhibition in vivo at 20 mg/kg [2, 6]: 65.9% |
| CCN1CCSC1=CC=c1sc(=Cc2cc[n+](CC)c3ccccc23)n(CC)c1=O [Compound 146] |  |  |  | inhibition in vivo at 20 mg/kg [2, 6]: 59.3% |
| CN1C(=CC=c2sc(=Cc3sc4c5ccccc5ccc4[n+]3C)n(C)c2=O)Sc2ccc3ccccc3c21 [Compound 48] | 0.005 µg/mL | 4000 | 20 µg/mL | inhibition in vivo at 20 mg/kg [2, 4]: 72.4% |
| CCn1c(=Cc2sc(-c3ccccc3)c(-c3ccccc3)[n+]2CC)sc(=CC=C2N(C)c3ccccc3C2(C)C)c1=O [Compound 204] |  |  |  | response vs control in vivo at 5 mg/kg (human melanoma LOX; i.p. on day 1, 4, 7, 10, 13, 16, 19, 22): 174% |
| CCN1C(=CC=c2sc(=Cc3sc4c5ccccc5ccc4[n+]3CC)n(CC)c2=O)Sc2ccc3ccccc3c21 [Compound 31] | 0.025 µg/mL | 400 | 10 µg/mL | response vs control in vivo at 40 mg/kg (human melanoma LOX; 40 mg/kg, i.p. on day 1, 2, 3, 4, 8, 10, 17): 169% |
| CCN1C(=CC=c2oc(=Cc3sc(-c4ccccc4)c(-c4ccccc4)[n+]3CC)n(CC)c2=O)Oc2ccccc21 [Compound 330] | 0.025 µg/mL | 100 | 2.5 µg/mL | response vs control in vivo at 5 mg/kg (human melanoma LOX; i.p. on day 1, 3, 5, 7, 9): 128% |
| CCC[n+]1c(C=c2sc(=CC=C3Sc4c(ccc5ccccc45)N3CC)c(=O)n2CC)sc2cc(C)c(OCC)cc21 [Compound 6] | 0.025 µg/mL | 400 |  | response vs control in vivo at 5 mg/kg (human melanoma LOX; i.p. on day 1, 3, 5, 7): 126%; IC50 ([3]; read-out: CV-1 (IC50)): 10 µg/mL |
